# Measured values published in EPA's ToxValDB 9.5.
# Several values for one entry are separate records, joined by “and”; a condition that tells them apart may be missing. Identical values can stand only once.
# Experiments:
# Mus musculus = details: subchronic, duration: 90 days, inhalation, Crl:CD-1 (ICR) BR
# Oryctolagus sp. = details: duration: 12 days, inhalation, New Zealand
# Rattus norvegicus = details: chronic, duration: 2 years, inhalation; for LOAEL / NOAEL: Crl:CD BR; for NEL / LEL: Crl:CD(SD) BR
# [1] = F, General Toxicity: Whole Body: Body Weight Change + General Toxicity: Whole Body: Clinical Observations + General Toxicity: Whole Body: …
# [2] = F, Nervous: Brain: Brain Weight, Absolute + Nervous: Brain: Brain Weight, Relative
# [3] = M, Blood: Triglycerides (TRIG), Blood + Whole Body: Mortality
# [4] = M, General Toxicity: Whole Body: Body Weight Change + General Toxicity: Whole Body: Clinical Observations + General Toxicity: Whole Body: …
# [5] = M, Nervous: Brain: Brain Weight, Absolute + Nervous: Brain: Brain Weight, Relative
# [6] = reproduction developmental, F, generation: P0, P0: Developmental: Uterus: Implantation + P0: Developmental: Uterus: Pre-Implantation Loss + P0: Developmental: Uterus: Resorptions, Mean/…
# [7] = reproduction developmental, F, generation: P0, P0: Developmental: Uterus: Resorptions, Mean/Litter + P0: General Toxicity: Whole Body: Body Weight Change + P0: General Toxicity: Whole …
# [8] = reproduction developmental, F, generation: P0, P0: Whole Body: Clinical Observations
# [9] = F, Developmental: Whole Body: Survival + General Toxicity: Whole Body: Body Weight Change + Hepatic: Liver: Liver Histopathology + Hepatic: …
# [10] = F, Blood: Eosinophils + Blood: Monocytes
# [11] = F, Blood: Sorbitol Dehydrogenase (SDH), Blood
# [12] = F, Liver: Liver Weight, Absolute
# [13] = F, Mammary Gland: Mammary Gland Fibroadenoma
# [14] = M, Developmental: Whole Body: Survival + General Toxicity: Whole Body: Body Weight Change + Hepatic: Liver: Focal Liver Necrosis + Hepatic: …
compound,measurement,setting,value
"FC(Cl)C(F)(F)F (stereo unspecified) [2-Chloro-1,1,1,2-tetrafluoroethane]",NEL,"Mus musculus; F, Adrenal: Adrenal Gland Weight, Absolute + Adrenal: Adrenal Gland Weight, Relative + Blood: Hematology, Unspecified + Brain: Brain Weight, …",279000 mg/m3
same,LOAEL,"Mus musculus; F, Cardiovascular: Heart: Heart Weight, Absolute + Cardiovascular: Heart: Heart Weight, Relative + Endocrine: Adrenal: Adrenal Gland Weight, …",83700 mg/m3
same,LOAEL,Mus musculus; [1],279000 mg/m3
same,NOAEL,Mus musculus; [1],83700 mg/m3
same,LOAEL,Mus musculus; [2],83700 mg/m3
same,NOAEL,Mus musculus; [2],27900 mg/m3
same,LEL,"Mus musculus; F, Whole Body: Mortality",27900 mg/m3
same,NEL,"Mus musculus; M, Adrenal: Adrenal Gland Weight, Absolute + Adrenal: Adrenal Gland Weight, Relative + Blood: Hematology, Unspecified + Brain: Brain Weight, …",279000 mg/m3
same,LEL,Mus musculus; [3],83700 mg/m3
same,NEL,Mus musculus; [3],27900 mg/m3
same,LOAEL,"Mus musculus; M, Cardiovascular: Heart: Heart Weight, Absolute + Cardiovascular: Heart: Heart Weight, Relative + Endocrine: Adrenal: Adrenal Gland Weight, …",83700 mg/m3
same,LOAEL,Mus musculus; [4],279000 mg/m3
same,NOAEL,Mus musculus; [4],83700 mg/m3
same,LEL,"Mus musculus; M, Heart: Heart Weight, Relative + Whole Body: Body Weight Change",27900 mg/m3
same,LOAEL,Mus musculus; [5],83700 mg/m3
same,NOAEL,Mus musculus; [5],27900 mg/m3
same,NOAEL,"Oryctolagus sp.; developmental, M/F, generation: F1, F1: Developmental: Uterus: Dead Fetuses + F1: Developmental: Uterus: Fetuses, Live + F1: Developmental: Whole Body: Body Weight, Fetal + F1…",279000 mg/m3
same,NOAEL,"Oryctolagus sp.; developmental, M/F, generation: F1, F1: Developmental: Whole Body: External Abnormalities + F1: Developmental: Whole Body: Live Pups Born + F1: Developmental: Whole Body: Pup …",27900 mg/m3 and 83700 mg/m3
same,NEL,"Oryctolagus sp.; developmental, M/F, generation: F1, F1: Uterus: Fetuses, Dead + F1: Uterus: Fetuses, Live + F1: Whole Body: Body Weight, Fetal + F1: Whole Body: External Abnormalities",279000 mg/m3
same,NEL,"Oryctolagus sp.; developmental, M/F, generation: F1, F1: Whole Body: External Abnormalities + F1: Whole Body: Live Pups Born + F1: Whole Body: Pup Weight Relative to Litter + F1: Whole Body: …",279000 mg/m3
same,NOAEL,"Oryctolagus sp.; reproduction developmental, F, generation: P0, P0: Developmental: Uterus: Implantation + P0: Developmental: Uterus: Number of Viable Fetuses + P0: Developmental: Uterus: Pre-Implantation …",279000 mg/m3
same,LOAEL,Oryctolagus sp.; [6],83700 mg/m3
same,NOAEL,Oryctolagus sp.; [6],27900 mg/m3
same,NOAEL,"Oryctolagus sp.; reproduction developmental, F, generation: P0, P0: Developmental: Uterus: Implantation + P0: Developmental: Uterus: Pre-Implantation Loss + P0: Reproductive: Ovary: Corpora Lutea",279000 mg/m3
same,LOAEL,Oryctolagus sp.; [7],279000 mg/m3
same,NOAEL,Oryctolagus sp.; [7],83700 mg/m3
same,NEL,"Oryctolagus sp.; reproduction developmental, F, generation: P0, P0: Liver: Liver Weight, Absolute + P0: Liver: Liver Weight, Relative + P0: Ovary: Corpora Lutea + P0: Uterus: Implantation + P0: Uterus: …",279000 mg/m3
same,NEL,"Oryctolagus sp.; reproduction developmental, F, generation: P0, P0: Ovary: Corpora Lutea + P0: Uterus: Implantation + P0: Uterus: Pre-Implantation Loss + P0: Uterus: Resorptions, Mean/Litter + P0: Whole …",279000 mg/m3
same,LEL,Oryctolagus sp.; [8],279000 mg/m3
same,NEL,Oryctolagus sp.; [8],83700 mg/m3
same,LOAEL,"Rattus norvegicus; F, Cardiovascular: Aorta: Aorta Histopathology + Cardiovascular: Heart: Heart Histopathology + Cardiovascular: Heart: Heart Weight, Absolute + …",279000 mg/m3
same,LOAEL,Rattus norvegicus; [9],279000 mg/m3
same,NOAEL,Rattus norvegicus; [9],55800 mg/m3
same,LOAEL,"Rattus norvegicus; F, Hepatic: Blood: Globulin (G) + Hepatic: Liver: Alanine Aminotransferase (ALT) + Hepatic: Liver: Albumin (A) + Hepatic: Liver: Alkaline …",11200 mg/m3
same,NEL,"Rattus norvegicus; F, Adrenal: Adrenal Gland Histopathology + Adrenal: Adrenal Gland Weight, Absolute + Aorta: Aorta Histopathology + Brain: Brain Histopathology…",279000 mg/m3
same,NEL,"Rattus norvegicus; F, Blood: Abnormal Lymphocytes + Blood: Bands + Blood: Basophils + Blood: Calcium (CA), Blood + Blood: Globulin (G), Blood + Blood: Glucose (…",279000 mg/m3
same,LEL,"Rattus norvegicus; F, Blood: Chloride (CL), Blood + Kidney: Creatine Kinase (CK), Blood + Kidney: Creatinine (CREAT), Blood",11200 mg/m3
same,LEL,Rattus norvegicus; [10],55800 mg/m3
same,NEL,Rattus norvegicus; [10],11200 mg/m3
same,LEL,Rattus norvegicus; [11],279000 mg/m3
same,NEL,Rattus norvegicus; [11],55800 mg/m3
same,LEL,Rattus norvegicus; [12],55800 mg/m3
same,NEL,Rattus norvegicus; [12],11200 mg/m3
same,LEL,Rattus norvegicus; [13],279000 mg/m3
same,NEL,Rattus norvegicus; [13],55800 mg/m3
same,LEL,"Rattus norvegicus; F, Whole Body: Body Weight Change + Whole Body: Terminal Body Weight, Absolute",11200 mg/m3
same,LOAEL,"Rattus norvegicus; M, Cardiovascular: Aorta: Aorta Histopathology + Cardiovascular: Heart: Heart Histopathology + Cardiovascular: Heart: Heart Weight, Absolute + …",279000 mg/m3
same,LOAEL,Rattus norvegicus; [14],279000 mg/m3
same,NOAEL,Rattus norvegicus; [14],55800 mg/m3
same,LOAEL,"Rattus norvegicus; M, Hepatic: Blood: Globulin (G) + Hepatic: Liver: Alanine Aminotransferase (ALT) + Hepatic: Liver: Albumin (A) + Hepatic: Liver: Alkaline …",11200 mg/m3
same,NEL,"Rattus norvegicus; M, Adrenal: Adrenal Gland Histopathology + Adrenal: Adrenal Gland Weight, Absolute + Aorta: Aorta Histopathology + Brain: Brain Histopathology…",279000 mg/m3
